Read-outs that look alike come from different tables or passages of the source.
Tests used:
[1] = Bleach stability index (BSI) test: % AvO loss of perfumed bleach product in accelerated aging, by iodometric titration; details: perfume ingredient at 0.2% via AE3S in PAP finished product, pH 3.8; 2 weeks at 40°C; BSI of at least 80% = not more than 20% AvO loss
Description: (§1) For this test, the pure perfume chemicals to be tested were diluted at 0.2% via a solubiliser, namely C10-C18 sodium alkyl sulfate condensed with an average of three moles of ethylene oxide (AE3S), then incorporated in a finished product and then subjected to the accelerated aging test. The accelerated aging test is set up as follows: 15 to 20g of each of the finished product incorporating the perfume ingredient was taken and placed in an oven for 2 weeks at 40°C. The aged samples were compared versus freshly made perfumed product (The reference) by measuring the AvO before storage from the reference and after storage from the aged product and expressing the difference in AvO as % loss.
(§2) The loss of available oxygen (AvO) of a bleach-containing composition over time can be measured with the iodometric titration method in which the bleach is reduced by excess potassium iodide and the iodine formed is determined by titration with sodium thiosulphate.

[2] = pH 3.8
Description: as §1, §2

bleach stability index (BSI) [1] | Compound | bleach stability index (BSI) [2]
at least 80% | CCCC(C)C=Nc1ccccc1C(=O)OC (stereo not shown) [mevantraal (q), Methyl 2-((-2-methylpentylidene)amino)-1-benzenecarboxylate] | 
at least 80% | CC(C)=CCOC(=O)c1ccccc1O [prenyl salicylate] | 
at least 80% | CC(C)C=CC(=O)CC(C)C [isotagetone 50, 2,7-Dimethyloct-5-en-4-one] | 
at least 80% | O=c1ccc2ccccc2o1 [coumarin, 1,2-benzopyrone] | 
at least 80% | C/C=C(/C)C(=O)OCC(C)C [isobutyl angelate] | 
at least 80% | 2,5,10-Trimethyl-2,5,9-cyclododecatrien-1-yl methyl ketone & isomers [trimofix o] | 
at least 80% | CC(=O)/C=C/C1C(C)=CCCC1(C)C (stereo not drawn) [ionone alpha] | 
at least 80% | C=CCCCCCCCCO [rosalva, 9-Decen-1-ol] | 
at least 80% | CC(C)(O)CCCC1=CCC(C=O)CC1 (stereo not shown) [lyral] | 
at least 80% | CCC/C=C/CO [trans-2-hexenol] | 
at least 80% | CCC/C=C/C=O [trans-2-hexenal] | 
at least 80% | CCCCCCC(C=O)=Cc1ccccc1 [hexyl cinnamic aldehyde] | 
at least 80% | CCC=C(C)C(O)CCCCC (stereo not shown) [undecavertol, 4-Methyl-3-decen-5-ol] | 
at least 80% | CC1(C)CCCC2=C1CC(C=O)CC2 (stereo not shown) [melafleur] | 
at least 80% | COC(=O)c1ccccc1N=CC1CCC(C)=CC1C (stereo not shown) [ligantraal, Methyl 2-((-1-(2,4-dimethyl-3-cyclohexenyl)methylidene)amino)-1-benzenecarboxylate] | 
at least 80% | CC(=O)/C=C/C1=C(C)CCCC1(C)C [ionone beta] | 

The next lines start with the compound.

Compound | bleach stability index (BSI) [1] | bleach stability index (BSI) [2]
O=C1CCCC=CCCCCCCCCCC1 [ambretone] | at least 80% | 
CC(C)=CCCC(C)=CC#N [3,7-dimethyl-2,6-octadienenitrile] | at least 80% | 
CC(CO)CC(C)c1ccccc1 (stereo not shown) [2-Methyl-4-phenyl-1-pentanol] | at least 80% | 
C=CCOC(=O)COCCCCC [glycolic acid, 2-pentyloxy:allyl ester] |  | at least 80%
CCCCCCC=CC(=O)OC [Beauvertate, methyl-2-nonenoate] | at least 80% | 
CC1=CCC(CCC(C)C(C)O)C1(C)C (stereo not shown) [Sandalore, 5-(2,2,3-Trimethyl-3-cyclopentenyl)-3-methylpentan-2-ol] | at least 80% | 
CCC(=O)OC1CC2CC1C1CC=CC21 (stereo not shown) [Frutene, tricyclo decenyl propionate] |  | at least 80%
C=CC(C)(C#N)Cc1ccccc1 (stereo not shown) [2-Benzyl-2-methyl-3-butenenitril] | at least 80% | 
CC=CC(=O)C1C(C)=CCCC1(C)C (stereo not drawn) [alpha-damascone, 2-Buten-1-one, 1-(2,6,6-trimethyl-2-cyclohexen-1-yl)-] | at least 80% | 
CC(=O)OCC=C(C)C [Prenyl acetate, 2-methylbuten-2-ol-4-acetate] | at least 80% | 
CC(=O)OCCC(C)CCC=C(C)C (stereo not shown) [citronellyl acetate] | at least 80% | 
CC=CC(=O)C1=C(C)CCCC1(C)C [2-Buten-1-one, 1-(2,6,6-trimethyl-1-cyclohexen-1-yl)-] | at least 80% | 
OC/C=C/c1ccccc1 [cinnamic alcohol] | at least 80% | 
CC=CC(=O)OC(C)CC(C)C (stereo not shown) [Frutinat.exp, 4-methyl-pentan-2-ol 2-butenoate] | at least 80% | 
CC=CC(=O)OC1CCCC1C1CCCC1 (stereo not shown) [2-cyclopentyl-cyclopentyl 2-butenoate] | at least 80% | 
OCC=Cc1ccccc1 [3-Phenyl-2-propen-1-ol] | at least 80% | 
CC(C)CCCC1=CCC(C)(C=O)CC1 (stereo not shown) [1-Methyl-4-(4-methylpentyl)-3-cyclohexenecarbaldehyde] | at least 80% | 

Compound | bleach stability index (BSI) [1] | bleach stability index (BSI) [2]
CC1=CC(C)C(CO)CC1 (stereo not shown) [Floralol, dimethyl cyclohexene methanol] | at least 80% | 
C=CC(C)CCCC(C)(C)O (stereo not shown) [Dihydro myrcenol, 2,6-dimethyl-7-octen-2-ol] | at least 80% | 
CC=CC(=O)OCCCCCC [Hexyl crotonate, hexyl 2-butenoate] | at least 80% | 
CC=C1CC2CC1C1CCCOC21 (stereo not shown) [5,8-Methano-2H-1-benzopyran, 6-ethylideneoctahydro-] | at least 80% | 
CCOC(=O)C1=C(C)C=CCC1(C)C [Ethyl safranate, ethyl 2,6,6-trimethyl-1,3-cyclohexdiene-1-carboxylate] | at least 80% | 
C=CCOC(=O)COCCC(C)C [allyl amyl glycolate] | at least 80% | 
CCC(=CCC1CC=C(C)C1(C)C)CO (stereo not shown) [Sanjinol, 2-Ethyl-4-(2,2,3-trimethyl-3-cyclopenten-1-yl)-2-buten-1-ol] | at least 80% | 
CC(C)=CCCC(C)CC=O (stereo not shown) [Citronellal, 3,7-Dimethyl-6-octen-1-al] | at least 80% | 
C=CC(C)(CCC=C(C)C)OC(C)=O (stereo not shown) [linalyl acetate] | at least 80% | 
CC1=CCC(CC#N)C1(C)C (stereo not shown) [cantryl] | at least 80% | 
CC(C)=CCCC(C)CCO (stereo not shown) [citronellol, 3,7-dimethyl-6-octen-1-ol] | at least 80% | 
C=CC(C)(O)CCC=C(C)C (stereo not shown) [Linalool, 3,7-Dimethyl-1,6-octadien-3-ol] | at least 80% | 
C=CC(=C)CCCC(C)(C)OC(C)=O [Myrcenyl acetate crude, 3-methylene-7-methyl-1-octen-7-yl acetate] | at least 80% | 
C=C(C=O)C(C)CCC=C(C)C (stereo not shown) [bergamal] | at least 80% | 
C=CCCCCCCCC=CCC#N [3,12-tridecadiene nitrile] | at least 80% | 
C=CC(O)CCCCC (stereo not shown) [amyl vinyl carbinol] | at least 80% | 
